Molecules are shown by their SMILES. Activity calls are given as the source filed them.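 Rule for the calls: active = maximal inhibition of the USP30 enzyme reaching 30% or more across the dose series; inactive = the rest.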

The term IC50 denotes the concentration that gives 50% inhibition.

This experiment addresses Ubiquitin carboxyl-terminal hydrolase 30 (Homo sapiens) (UniProt Q70CQ3). Put plainly: ubiquitin-specific protease 30 DUB inhibitors, concentration-effect, biochemical, validation of primary actives (AID 1645865). To be noted: purified USP30, Ub-rhodamine cleavage, fluorescence, 2 h.

Sequence of Ubiquitin carboxyl-terminal hydrolase 30 (Homo sapiens) (Q70CQ3 whole entry, looked up): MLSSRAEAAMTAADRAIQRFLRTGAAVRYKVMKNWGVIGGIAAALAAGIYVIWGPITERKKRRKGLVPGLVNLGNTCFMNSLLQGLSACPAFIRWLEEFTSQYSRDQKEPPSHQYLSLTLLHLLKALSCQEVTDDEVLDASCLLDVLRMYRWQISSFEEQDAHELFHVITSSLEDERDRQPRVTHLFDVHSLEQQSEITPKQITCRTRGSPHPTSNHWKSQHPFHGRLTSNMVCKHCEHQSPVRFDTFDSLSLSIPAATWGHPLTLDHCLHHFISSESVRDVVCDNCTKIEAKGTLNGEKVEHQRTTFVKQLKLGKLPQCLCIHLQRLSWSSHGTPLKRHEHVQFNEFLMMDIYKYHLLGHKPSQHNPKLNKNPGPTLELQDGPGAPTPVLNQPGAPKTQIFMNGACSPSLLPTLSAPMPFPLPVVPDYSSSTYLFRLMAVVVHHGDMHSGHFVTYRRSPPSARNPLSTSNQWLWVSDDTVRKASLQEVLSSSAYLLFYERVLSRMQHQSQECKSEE

Consider `Cc1c(C(=O)c2ccccc2)c2ccccn2c1CCc1ccccn1`, for which the IC50 was > 50 µM (inactive). Take `Cc1c(Cl)cccc1NC(=O)Cn1c(=O)c2ccccc2n2nncc12`: the IC50 was > 50 µM (inactive). Turning to `Cc1ccc2c(c1)-c1c(c(C(=O)N3CCN(c4ccccc4)CC3)nn1C)CS2`, the IC50 was > 50 µM (inactive).

Regarding `Cc1cc(C(=O)N2CCOC3(CC=CCN(CCc4ccccc4)C3=O)C2)n2nccc2n1` (stereo not given), the IC50 was > 50 µM (inactive). The value for `O=C(Nc1ccc2ccccc2n1)c1ccc(Cl)cc1` was 2.08 µM; that for `COc1ccc(-c2nnc(SCc3ccccc3C#N)o2)c(OC)c1` was 49.7 µM; that for `COc1ccc(NC(=O)C2CC(=O)Nc3c(-c4ccc(Cl)cc4)cnn32)c(OC)c1` (stereo not given) was 8.18 µM. The value for `O=C(NCc1ccc2c(c1)OCO2)c1ccc(C2SCC(=O)N2Cc2ccco2)cc1` (stereo not given) was > 50 µM (inactive); that for `O=C(CSc1nc2ccncc2[nH]1)Nc1ccc(Br)cc1F` was 27.4 µM; that for `COc1cc(N)c(Cl)cc1C(=O)OCC(=O)c1ccc2c(c1)OCCO2` was > 50 µM (inactive). The figure for `O=C(/C=C/c1cnc2ccccc2c1)NCc1ccccc1` is 35.1 µM; for `COc1cccc(CN2CCc3nc4nc(C)ccc4cc3C2)c1` it is > 50 µM (inactive); for `CCOC(=O)c1cccc(NC(=O)Nc2cccn3nc(C)nc23)c1` it is > 50 µM (inactive).

Turning to `O=C(CSc1nc2ccccc2n1S(=O)(=O)c1ccc(Br)cc1)Nc1ccc([N+](=O)[O-])cc1Cl`, the IC50 is 41 µM.

For the compound `CCc1nnc(NC(=O)c2nnn(-c3ccccc3Cl)c2C)s1`, the IC50 is > 50 µM (inactive). The figure for `CN1C(=O)COc2cc(-c3noc(C(=O)NC4CCCCCC4)n3)ccc21` is 24.7 µM. The value for `Cn1c2ccccc2c(=O)c2c(=O)n(Cc3ccccc3)c(-c3ccccc3F)nc21` was 0.111 µM; that for `O=C(CCn1c(=O)c2ccccc2n(Cc2cc(=O)n3ccccc3n2)c1=O)NCCc1ccc(Cl)cc1` was 28.5 µM; that for `Cc1noc(-c2cc(=O)n(CC(=O)NCc3ccccc3)c3ccccc23)n1` was > 50 µM (inactive). The figure for `CCc1ccc(NC(=O)Cc2nnc(-c3ccc4ncccc4c3)o2)cc1` is 28.4 µM; for `O=C(NCc1ccccc1)c1ccc2c(=O)n(-c3ccccc3)c(=O)[nH]c2c1` it is 16 µM; for `O=C(COc1ccc(F)cc1)Nc1cc(F)c2nc(N3CCOCC3)ccc2c1` it is > 50 µM (inactive). As to `CCc1ccc(-n2c(=O)c3ccccc3n(CC(=O)NCCC3=CCCCC3)c2=O)cc1`, the IC50 was 6.68 µM. As to `Cc1cc(C(=O)Nc2ccc3c(c2)OCCO3)no1`, the IC50 was > 50 µM (inactive). The figure for `Cc1ccccc1-c1nnc(-c2ccc(C(=O)NCc3ccccc3F)cc2)o1` is 3.32 µM; for `Cc1cccc(NC(=O)CN2C(=O)CC(c3ccccc3)S(=O)(=O)c3ccccc32)c1C` (stereo not given) it is 22.1 µM. The value for `COc1ccc(C(=O)NCC(c2ccc3c(c2)CCCN3C)N2CCCC2)cc1` (stereo not given) was > 50 µM (inactive); that for `O=c1[nH]c(C2CCN(S(=O)(=O)c3ccc(S(=O)(=O)NC4CCCCC4)cc3)CC2)nc2c1nnn2Cc1c(Cl)cccc1Cl` was 12.1 µM; that for `Cc1ccc(NC(=O)c2cc(=O)n(C)c3c2c(=O)n(C)c(=O)n3C)c(C)c1` was > 50 µM (inactive). The value for `COCCCn1c(C(=O)Nc2ccccc2OC)cc2c(=O)n3ccccc3nc21` was > 5 µM (inactive). On to `Cn1c(CN2CCCCCC2)nc2cc(NC(=O)c3ccccc3)ccc21`, for which the IC50 is > 50 µM (inactive). The value for `Cn1ccnc1CN1C[C@H]2CCN(c3ncccn3)C[C@H]2C1` was > 50 µM (inactive); that for `COc1cccc2c1NC(=O)C21CCN(C(=O)Nc2cccc3ccccc23)CC1` was > 50 µM (inactive); that for `COc1ccc(Cn2c(=O)[nH]c3cc(C(=O)NCCCN4CCN(c5cccc(Cl)c5)CC4)ccc3c2=O)cc1` was 1.92 µM. With `COc1ccc(CC(NC(C)=O)C(=O)NC2CCN(c3c(Cc4ccccc4)c(C)nc4ncnn34)CC2)cc1OC` (stereo not given), the IC50 was > 50 µM (inactive). The figure for `COc1ccc(OCC(=O)Nc2ccc(C)c(OCc3cc(=O)n4ccccc4n3)c2)cc1` is 4.77 µM; for `NC(=O)c1nnn(-c2ccc(NC(=O)c3ccc(F)c(F)c3)cc2)n1` it is 15 µM. The value for `COc1cccc(NC(=O)Nc2nccn(-c3ccc(F)cc3)c2=O)c1` was 21.2 µM. As to `CC(C)(C)OC(=O)N1CCN(C(=O)Cn2c(=O)nc(-c3ccccc3)c3ccccc32)CC1`, the IC50 is > 50 µM (inactive). The value for `Nc1c(-c2ccc(Cl)cc2)cnc2nc(Sc3ncc(C(F)(F)F)cc3Cl)nn12` was > 50 µM (inactive).

`COc1cc(OC)c2c(c1)C(=O)C1=C(COC(C)(O)C1)C2=O` (stereo not given): the IC50 was > 50 µM (inactive). The value for `Cc1ccn(-c2ccc(NC(=O)c3ccccc3Sc3ccccc3C#N)cc2)n1` was 34.9 µM. Take `CC(C)N(C(=O)Cn1c(=O)[nH]c2ccccc21)c1ccccc1`: the IC50 was > 50 µM (inactive). The figure for `Cc1nc(-c2ccc(C(=O)NCc3ccc(F)cc3)cc2)cs1` is 38.3 µM. The figure for `COc1cccc(N2C(=O)N(CC(=O)NCc3ccc(Cl)cc3)c3ccccc3S2(=O)=O)c1` is 17 µM; for `O=C(Nc1ccccc1Sc1ncc(-c2ccc(Cl)cc2)cn1)c1ccco1` it is 4.01 µM; for `CC(C)(C)C(=O)C1C2C(=O)N(Cc3ccccc3)C(=O)C2C2c3ccccc3C=CN12` (stereo not given) it is > 50 µM (inactive). Consider `CCCc1nc2sc3c(NCCN4CCOCC4)ncnc3c2c2c1CCC2`, for which the IC50 is > 50 µM (inactive). The figure for `CCCN1C=NS(=O)(=O)c2cc(C(=O)Nc3ccc(OC)c(Cl)c3)ccc21` is 12.5 µM; for `CC1CCc2c(sc3ncnc(OCc4cccc([N+](=O)[O-])c4)c23)C1` (stereo not given) it is > 50 µM (inactive).

The values above are taken from PubChem BioAssay AID1645865 (Buhrlage Lab, Dana-Farber Cancer Institute and Novartis …, 2021).
